Results from patent publication US10196393B2, “JAK inhibitors containing a 4-membered heterocyclic amide” (THERAVANCE BIOPHARMA R&D IP, LLC, priority 2017, dated 2019).

What was measured:
[1] = target: JAK2 (Homo sapiens (Human), UniProt O60674); assay: Biochemical JAK kinase assay (LanthaScreen), JAK2; conditions: converted from pIC50 with Cheng-Prusoff equation
Protocol: (§1) Assay 1: Biochemical JAK Kinase Assays
(§2) A panel of four LanthaScreen JAK biochemical assays (JAK1, 2, 3 and Tyk2) were carried in a common kinase reaction buffer (50 mM HEPES, pH 7.5, 0.01% Brij-35, 10 mM MgCl2, and 1 mM EGTA). Recombinant GST-tagged JAK enzymes and a GFP-tagged STAT1 peptide substrate were obtained from Life Technologies.
(§3) Serially diluted compounds were pre-incubated with each of the four JAK enzymes and the substrate in white 384-well microplates (Corning) at ambient temperature for 1 h. ATP was subsequently added to initiate the kinase reactions in 10 μL total volume, with 1% DMSO. […] The plates were allowed to incubate at ambient temperature for 1 h before being read on the EnVision reader (Perkin Elmer).
(§4) For dose-response analysis, percent inhibition data were plotted vs. compound concentrations, and IC50 values were determined from a 4-parameter robust fit model with the Prism software (GraphPad Software). Results were expressed as pIC50 (negative logarithm of IC50) and subsequently converted to pKi (negative logarithm of dissociation constant, Ki) using the Cheng-Prusoff equation.

[2] = tested on: Alternaria alternata-induced eosinophilic inflammation of the lung (BALF eosinophils); assay: Murine model of Alternaria alternata-induced eosinophilic inflammation of the lung; assay type: in vivo; conditions: mouse, oropharyngeal aspiration 0.03-1.0 mg/mL, BALF 48 h after challenge; maximum statistically significant inhibition
Source text: Assay 5: Murine Model of Alternaria alternata-Induced Eosinophilic Inflammation of the Lung
Airway eosinophilia is a hallmark of human asthma. Alternaria alternata is a fungal aeroallergen that can exacerbate asthma in humans and induces eosinophilic inflammation in the lungs of mice (Havaux et al. Clin Exp Immunol. 2005 February; 139(2):179-88).
Seven- to nine-week old male C57 mice from Taconic were used in the study. On the day of study, animals were lightly anesthetized with isoflurane and administered either vehicle or test compound (0.03-1.0 mg/mL, 50 μL total volume over several breaths) via oropharyngeal aspiration. Animals were placed in lateral recumbency post dose and monitored for full recovery from anesthesia before being returned to their home cage. One hour later, animals were once again briefly anesthetized and challenged with either vehicle or alternaria extract (200 ug total extract delivered, 50 μL total volume) via oropharyngeal aspiration before being monitored for recovery from anesthesia and returned to their home cage. Forty-eight hours after alternaria administration, bronchoalveolar lavage fluid (BALF) was collected and eosinophils were counted in the BALF using the Advia 120 Hematology System (Siemens). […]

[3] = tested on: IL-2/anti-CD3 stimulated IFNγ in human PBMCs; assay: Cellular JAK potency assay: inhibition of IL-2/anti-CD3 stimulated IFNγ in human PBMCs; assay type: cell-based; conditions: PBMC, 24 h stimulation, read-out: pIC50, inhibition of IL-2/anti-CD3 stimulated IFNγ (converted)
Source text: Data are expressed as pIC50 (negative decadic logarithm IC50) values.

[4] = target: JAK3 (Homo sapiens (Human), UniProt P52333); assay: Biochemical JAK kinase assay (LanthaScreen), JAK3; conditions: converted from pIC50 with Cheng-Prusoff equation
JAK3, sequence (P52333 whole entry): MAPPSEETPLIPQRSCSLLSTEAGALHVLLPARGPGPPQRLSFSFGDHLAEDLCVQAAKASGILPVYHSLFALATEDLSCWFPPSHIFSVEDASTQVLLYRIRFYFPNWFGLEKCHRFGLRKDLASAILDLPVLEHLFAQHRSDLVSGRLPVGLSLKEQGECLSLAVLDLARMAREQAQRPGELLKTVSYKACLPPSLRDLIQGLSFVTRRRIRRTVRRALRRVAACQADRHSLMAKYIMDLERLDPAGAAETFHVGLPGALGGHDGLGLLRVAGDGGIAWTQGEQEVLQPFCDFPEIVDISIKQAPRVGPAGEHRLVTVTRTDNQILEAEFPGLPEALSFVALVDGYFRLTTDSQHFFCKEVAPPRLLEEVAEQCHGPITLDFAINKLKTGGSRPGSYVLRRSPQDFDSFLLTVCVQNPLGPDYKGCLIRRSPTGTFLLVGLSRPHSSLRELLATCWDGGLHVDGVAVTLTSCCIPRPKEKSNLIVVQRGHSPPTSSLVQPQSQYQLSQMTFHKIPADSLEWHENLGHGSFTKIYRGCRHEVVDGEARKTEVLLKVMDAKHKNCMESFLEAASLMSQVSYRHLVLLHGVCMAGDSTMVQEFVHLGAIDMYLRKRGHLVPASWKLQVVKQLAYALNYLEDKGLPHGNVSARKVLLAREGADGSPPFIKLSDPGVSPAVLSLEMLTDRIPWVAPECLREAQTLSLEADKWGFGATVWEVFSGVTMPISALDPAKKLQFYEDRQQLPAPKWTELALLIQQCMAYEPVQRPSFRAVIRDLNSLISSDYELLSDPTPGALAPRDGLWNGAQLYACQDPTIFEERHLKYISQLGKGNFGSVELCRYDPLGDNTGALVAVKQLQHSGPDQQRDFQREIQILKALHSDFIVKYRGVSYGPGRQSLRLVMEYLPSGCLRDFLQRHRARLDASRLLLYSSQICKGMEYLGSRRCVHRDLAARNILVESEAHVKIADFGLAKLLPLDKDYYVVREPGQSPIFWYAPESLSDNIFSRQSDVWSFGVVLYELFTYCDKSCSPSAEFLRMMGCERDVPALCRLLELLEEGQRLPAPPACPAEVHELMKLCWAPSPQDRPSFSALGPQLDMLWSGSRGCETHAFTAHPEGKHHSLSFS
Protocol: as §1, §2, §3, §4

[5] = target: JAK1 (Homo sapiens (Human), UniProt P23458); assay: Biochemical JAK kinase assay (LanthaScreen), JAK1; conditions: converted from pIC50 with Cheng-Prusoff equation
JAK1, sequence (P23458 whole entry): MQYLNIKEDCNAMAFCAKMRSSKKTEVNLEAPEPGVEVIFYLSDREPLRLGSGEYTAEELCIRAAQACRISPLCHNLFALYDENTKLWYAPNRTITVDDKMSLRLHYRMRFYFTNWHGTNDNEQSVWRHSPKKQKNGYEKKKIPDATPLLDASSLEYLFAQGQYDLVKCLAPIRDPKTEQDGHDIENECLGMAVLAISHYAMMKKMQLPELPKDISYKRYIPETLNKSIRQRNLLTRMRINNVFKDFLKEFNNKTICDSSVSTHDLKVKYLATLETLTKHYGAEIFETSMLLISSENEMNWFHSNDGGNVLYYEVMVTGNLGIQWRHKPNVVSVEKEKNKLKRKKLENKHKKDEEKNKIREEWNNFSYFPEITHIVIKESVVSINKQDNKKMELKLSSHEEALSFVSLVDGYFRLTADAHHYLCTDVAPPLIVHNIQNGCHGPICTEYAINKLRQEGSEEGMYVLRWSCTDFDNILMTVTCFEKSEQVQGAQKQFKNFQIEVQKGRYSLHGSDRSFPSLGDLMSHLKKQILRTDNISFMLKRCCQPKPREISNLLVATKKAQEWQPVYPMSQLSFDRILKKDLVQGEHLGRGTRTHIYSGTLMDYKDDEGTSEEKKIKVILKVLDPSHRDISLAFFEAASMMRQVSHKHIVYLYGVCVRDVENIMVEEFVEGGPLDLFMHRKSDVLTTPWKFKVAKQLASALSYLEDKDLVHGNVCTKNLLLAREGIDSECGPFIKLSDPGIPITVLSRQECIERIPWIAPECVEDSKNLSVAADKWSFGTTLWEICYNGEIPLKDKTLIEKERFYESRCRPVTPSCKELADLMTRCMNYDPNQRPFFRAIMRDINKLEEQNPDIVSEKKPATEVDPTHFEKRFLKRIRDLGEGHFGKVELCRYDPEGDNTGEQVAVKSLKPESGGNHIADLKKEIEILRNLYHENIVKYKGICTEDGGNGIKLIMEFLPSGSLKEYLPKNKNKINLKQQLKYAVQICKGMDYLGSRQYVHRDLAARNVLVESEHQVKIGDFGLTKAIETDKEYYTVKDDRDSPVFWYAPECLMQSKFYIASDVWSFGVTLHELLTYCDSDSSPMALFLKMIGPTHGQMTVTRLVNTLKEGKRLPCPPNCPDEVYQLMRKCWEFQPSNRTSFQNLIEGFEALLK
Protocol: as §1, §2, §3, §4

[6] = tested on: IL-4 stimulated STAT6 phosphorylation in CD3+ T cells; assay: Cellular JAK potency assay: inhibition of IL-4 stimulated pSTAT6 in CD3+ T cells; assay type: cell-based; conditions: T-cell; CD3+ T cells in human PBMCs; read-out: pIC50, inhibition of IL-4 stimulated pSTAT6 (converted)
Protocol: Assay 10: Cellular JAK Potency Assay: Inhibition of IL-4 Stimulated pSTAT6 in CD3+ T Cells
The potency of the test compound for inhibition of interleukin-4 (IL-4) stimulated STAT6 phosphorylation was measured in CD3-positive (CD3+) T cells in human peripheral blood mononuclear cells (PBMCs) isolated from human whole blood (Stanford Blood Center) using flow cytometry. Because IL-4 signals through JAK, this assay provides a measure of JAK cellular potency.
CD3+ T cells were identified using a […] (PE) conjugated anti-CD3 antibody (Clone UCHT1, BD Biosciences), while an Alexa Fluor 647 conjugated anti-pSTAT6 antibody (pY641, Clone 18/P, BD Biosciences) was used to detect STAT6 phosphorylation.
Human peripheral blood mononuclear cells (PBMC) were isolated from human whole blood of healthy donors as in Assays 8 and 9. […] After incubation, cells were washed twice in FACS buffer before being analyzed using a LSRII flow cytometer (BD Biosciences).
To determine the inhibitory potency of the test compound in response to IL-4, the median fluorescent intensity (MFI) of pSTAT6 was measured in CD3+ T cells. IC50 values were determined from analysis of the inhibition curves of MFI vs compound concentration. Data are expressed as pIC50 (negative decadic logarithm IC50).

[7] = target: Tyk2 (Homo sapiens (Human), UniProt P29597); assay: Biochemical JAK kinase assay (LanthaScreen), Tyk2; conditions: converted from pIC50 with Cheng-Prusoff equation
Tyk2, sequence (P29597 whole entry): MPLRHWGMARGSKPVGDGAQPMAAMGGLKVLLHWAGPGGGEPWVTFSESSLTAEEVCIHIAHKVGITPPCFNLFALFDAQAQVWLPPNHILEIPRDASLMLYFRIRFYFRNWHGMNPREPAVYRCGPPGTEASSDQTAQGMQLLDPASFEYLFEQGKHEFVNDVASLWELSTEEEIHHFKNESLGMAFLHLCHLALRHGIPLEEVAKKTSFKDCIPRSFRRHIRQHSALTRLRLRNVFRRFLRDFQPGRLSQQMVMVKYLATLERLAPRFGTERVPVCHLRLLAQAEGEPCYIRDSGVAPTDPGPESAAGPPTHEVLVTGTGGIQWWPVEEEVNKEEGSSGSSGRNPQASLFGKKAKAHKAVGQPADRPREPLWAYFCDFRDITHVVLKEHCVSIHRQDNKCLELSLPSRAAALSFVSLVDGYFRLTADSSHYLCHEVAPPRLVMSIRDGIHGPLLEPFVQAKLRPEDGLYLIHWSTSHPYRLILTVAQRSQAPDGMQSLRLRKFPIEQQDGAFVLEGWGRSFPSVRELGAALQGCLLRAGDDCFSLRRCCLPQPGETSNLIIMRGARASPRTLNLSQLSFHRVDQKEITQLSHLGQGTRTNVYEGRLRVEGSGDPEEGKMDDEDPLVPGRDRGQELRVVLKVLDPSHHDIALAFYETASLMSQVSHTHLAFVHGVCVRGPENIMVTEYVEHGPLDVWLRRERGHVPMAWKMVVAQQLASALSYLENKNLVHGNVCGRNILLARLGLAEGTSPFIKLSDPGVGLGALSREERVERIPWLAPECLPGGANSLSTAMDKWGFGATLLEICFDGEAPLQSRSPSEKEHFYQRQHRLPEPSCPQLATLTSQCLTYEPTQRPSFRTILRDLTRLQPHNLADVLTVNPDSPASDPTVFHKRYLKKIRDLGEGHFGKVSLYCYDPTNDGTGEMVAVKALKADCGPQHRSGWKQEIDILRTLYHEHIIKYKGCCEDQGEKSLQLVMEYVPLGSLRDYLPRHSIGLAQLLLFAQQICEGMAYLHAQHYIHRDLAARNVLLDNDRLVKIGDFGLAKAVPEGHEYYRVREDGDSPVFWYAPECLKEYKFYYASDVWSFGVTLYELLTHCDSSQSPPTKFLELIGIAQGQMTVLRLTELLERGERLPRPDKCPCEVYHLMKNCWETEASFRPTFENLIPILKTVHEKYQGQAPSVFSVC
Protocol: as §1, §2, §3, §4

JAK2, sequence (O60674 whole entry): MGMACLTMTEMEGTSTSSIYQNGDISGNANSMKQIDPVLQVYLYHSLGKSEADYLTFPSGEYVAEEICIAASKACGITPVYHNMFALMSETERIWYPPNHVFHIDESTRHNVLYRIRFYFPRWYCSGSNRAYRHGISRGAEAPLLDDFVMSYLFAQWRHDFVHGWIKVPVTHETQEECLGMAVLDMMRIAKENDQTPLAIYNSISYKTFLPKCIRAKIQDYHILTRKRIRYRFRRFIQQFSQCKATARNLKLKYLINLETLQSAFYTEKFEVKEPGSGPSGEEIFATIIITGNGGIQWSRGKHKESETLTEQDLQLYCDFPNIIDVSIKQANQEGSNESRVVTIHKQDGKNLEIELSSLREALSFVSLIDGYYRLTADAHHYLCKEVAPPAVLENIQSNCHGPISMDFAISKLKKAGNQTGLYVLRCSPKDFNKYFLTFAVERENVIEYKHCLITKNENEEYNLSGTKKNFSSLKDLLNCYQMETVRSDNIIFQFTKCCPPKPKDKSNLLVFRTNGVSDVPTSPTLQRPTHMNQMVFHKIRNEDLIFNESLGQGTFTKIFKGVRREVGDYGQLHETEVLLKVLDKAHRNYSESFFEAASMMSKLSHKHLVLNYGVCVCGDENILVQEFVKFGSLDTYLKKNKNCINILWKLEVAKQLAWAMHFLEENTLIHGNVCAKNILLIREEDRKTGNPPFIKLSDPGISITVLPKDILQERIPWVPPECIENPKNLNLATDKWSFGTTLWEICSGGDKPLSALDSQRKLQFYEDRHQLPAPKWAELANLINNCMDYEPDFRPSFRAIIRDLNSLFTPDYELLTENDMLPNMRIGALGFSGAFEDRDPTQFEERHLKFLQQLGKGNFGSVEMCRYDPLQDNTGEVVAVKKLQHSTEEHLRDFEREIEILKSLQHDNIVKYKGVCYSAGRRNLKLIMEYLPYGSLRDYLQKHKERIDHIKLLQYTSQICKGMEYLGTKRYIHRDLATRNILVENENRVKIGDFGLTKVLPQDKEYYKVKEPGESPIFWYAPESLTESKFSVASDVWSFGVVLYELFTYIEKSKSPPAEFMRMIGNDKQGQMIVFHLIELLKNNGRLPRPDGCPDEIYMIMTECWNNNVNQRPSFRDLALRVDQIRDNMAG

## CCc1cc(O)c(F)cc1-c1ccc2c(-c3nc4c([nH]3)CN(C(C)C)[C@H](C(=O)N3CC(N(C)C)C3)C4)n[nH]c2c1 [Example 2, (S)-(3-(dimethylamino)azetidin-1-yl)(2-(6-(2-ethyl-5-fluoro-4-hydroxyphenyl)-1H-indazol-3-yl)-5-isopropyl-4,5,6,7-tetrahydro-3H-imidazo[4,5-c]pyridin-6-yl)methanone]
[1]
  Ki: 20 pM
[2]
  Percent Inhibition of Alternaria-induced BALF Eosinophils: 74%
[3]
  IC50: ~79400 pM
[4]
  Ki: 100 pM
[5]
  Ki: 40 pM
[6]
  IC50: 12600 pM
[7]
  Ki: 320 pM
